Patent US7307084B2, “Cyclic benzimidazoles” (Altana Pharma AG, priority 2003, dated 2007)

Assays:
[1] = test system: pentagastrin-stimulated acid secretion of the perfused rat stomach; assay: Testing of the secretion-inhibiting action on the perfused rat stomach; details: dose 1 μmol/kg i.d. (intraduodenal), perfused stomach of anesthetized female CD rat, in vivo
Text: In Table A which follows, the influence of the compounds according to the invention on the pentagastrin-stimulated acid secretion of the perfused rat stomach after intraduodenal administration in vivo is shown.
The abdomen of anesthetized rats (CD rat, rat, female, 200-250 g; 1.5 g/kg l.m. urethane) was opened after trachetomy by a median upper abdominal incision and a PVC catheter was fixed transorally in the esophagus and another via the pylorus such that the ends of the tubes just projected into the gastric lumen. The catheter leading from the pylorus led outward into the right abdominal wall through a side opening.
After thorough rinsing (about 50-100 ml), warm (37° C.) physiological NaCl solution was continuously passed through the stomach (0.5 ml/min, pH 6.8-6.9; Braun-Unita 1). The pH (pH meter 632, glass electrode EA 147; φ=5 mm, Metrohm) and, by titration with a freshly prepared 0.01N NaOH solution to pH 7 (Dosimat 665 Metrohm), the secreted HCl were determined in the effluent in each case collected at an interval of 15 minutes.
The gastric secretion was stimulated by continuous infusion of 1 μg/kg (=1.65 ml/h) of i.v. pentagastrin (left femoral vein) about 30 min after the end of the operation (i.e. after determination of 2 preliminary fractions). The substances to be tested were administered intraduodenally in a 2.5 ml/kg liquid volume 60 min after the start of the continuous pentagastrin infusion.
The body temperature of the animals was kept at a constant 37.9-38° C. by infrared irradiation and heat pads (automatic, stepless control by means of a rectal temperature sensor).

Structure (SMILES)	melting point [°C]	Inhibition of acid secretion [1] [%]
CNC(=O)c1cc2c(nc(C)n2C)c2c1CC[C@@H](c1ccccc1)N2 [32 (8S), (8S)-2,3-dimethyl-8-phenyl-6,7,8,9-tetrahydro-3H-imidazo[4,5-h]quinoline-5-carboxylic acid methylamide]	–	>50
Cc1nc2c3c(c(C(=O)N(C)C)cc2n1C)CC[C@@H](c1ccccc1)O3 [33 (8S), (8S)-2,3-Dimethyl-8-phenyl-3,6,7,8-tetrahydro-chromeno[7,8-d]imidazole-5-carboxylic Acid Dimethylamide]	–	>50
Cc1nc2c3c(c(C(=O)N(C)C)cc2n1C)CCC(c1ccccc1)O3 (centres unmarked) [Example 1, 2,3-Dimethyl-phenyl-3,6,7,8-tetrahydro-chromeno[7,8-a]imidazole-5-carboxylic Acid Dimethylamide]	–	>50
CNC(=O)c1cc2c(nc(C)n2C)c2c1CCC(c1ccccc1)O2 (centres unmarked) [Example 4, 2,3-Dimethyl-8-phenyl-4,6,7,8-tetrahydro-chromeno[7,8-d] imidazole-5-carboxylic Acid Methylamide]	–	>50
Cc1nc2c3c(c(C(=O)NCCO)cc2n1C)CCC(c1ccccc1)O3 (centres unmarked) [Example 5, 2,3 Dimethyl-8-phenyl-3,6,7,8-tetrahydro-chromeno[7,8-d]imidazole-5-carboxylic Acid (2-Hydroxy-ethyl)-amide]	228 to 229	–
COCCNC(=O)c1cc2c(nc(C)n2C)c2c1CCC(c1ccccc1)O2 (centres unmarked) [Example 6, 2,3-Dimethyl-8-phenyl-3,6,7,8-tetrahydro-chromeno[7,8-d]imidazole-5-carboxylic Acid (2-Methoxy-ethyl)amide]	254 to 256	–
Cc1nc2c3c(c(C(=O)N4CCOCC4)cc2n1C)CCC(c1ccccc1)O3 (centres unmarked) [Example 7, 1-(2,3-Dimethyl-8-phenyl-3,6,7,8-tetrahydro-chromeno[7,8-d]imidazol-5-yl)-1-morpholin-4-yl-methanone]	291 to 293	–
CC(C)c1nc2c3c(c(C(=O)N(C)C)cc2n1C)CCC(c1ccccc1)O3 (centres unmarked) [Example 9, 2-Isopropyl-3-methyl-8-phenyl-3,6,7,8-tetrahydro-chromeno[7,8-d]imidazole-5-carboxylic Acid Dimethylamide]	179 to 180	–
CN(C)C(=O)c1cc2c(nc(C3CC3)n2C)c2c1CCC(c1ccccc1)O2 (centres unmarked) [Example 10, 2-Cyclopropyl-3-methyl-8-phenyl-3,6,7,8-tetrahydro-chromeno[7,8-d]imidazole-5-carboxylic Acid Dimethylamide]	176 to 179	>50
COCc1cc2c(nc(C)n2C)c2c1CCC(c1ccccc1)O2.O=C(O)C(=O)O (centres unmarked) [Example 11, 5-Methoxymethyl-2,3-dimethyl-8-phenyl-3,6,7,8-tetrahydro-chromeno[7,8-d]imidazole Oxalic Acid]	204 to 205	–
COCCOCc1cc2c(nc(C)n2C)c2c1CCC(c1ccccc1)O2.O=C(O)C(=O)O (centres unmarked) [Example 12, 5-(2-Methoxy-ethoxymethyl)-2,3-dimethyl-8-phenyl-3,6,7,8-tetrahydro-chromeno[7,8-d]-imidazole Oxalic Acid]	131 to 133	–
Cc1nc2c3c(c(C(=O)N4CC4)cc2n1C)CCC(c1ccccc1)O3 (centres unmarked) [Example 13, 1-Aziridin-1-yl-(2,3-dimethyl-8-phenyl-3,6,7,8-tetrahydro-chromeno[7,8-d]imidazol-5-yl)-methanone]	201 to 204	–
CN(C)C(=O)c1cc2c(nc(C(F)(F)F)n2C)c2c1CCC(c1ccccc1)O2 (centres unmarked) [Example 14, 3-Methyl-8-phenyl-2-trifluoromethyl-3,6,7,8-tetrahydro-chromeno[7,8-d]imidazole-5-carboxylic Acid Dimethylamide]	223 to 225	–
Cc1nc2c3c(c(CO)cc2n1C)CCC(c1ccccc1)O3 (centres unmarked) [Example 17, (2,3-Dimethyl-8-phenyl-3,6,7,8-tetrahydro-chromeno[7,8-d]imidazol-5-yl)methanol]	279 to 281	–
Cc1nc2c3c(c(C(=O)N4CCC4)cc2n1C)CCC(c1ccccc1)O3 (centres unmarked) [Example 18, 1-Azetidin-1-yl-1-(2,3-dimethyl-8-phenyl-3,6,7,8-tetrahydro-chromeno[7,8-d]imidazol-5-yl)-methanone]	–	>50
CCCNC(=O)c1cc2c(nc(C)n2C)c2c1CCC(c1ccccc1)O2 (centres unmarked) [Example 19, 2,3Dimethyl-8-phenyl-3,6,7,8-tetrahydro-chromeno[7,8-d]imidazole-5-carboxylic Acid Propyl-amide]	273	–
Cc1nc2c3c(c(C(=O)NCC(O)CO)cc2n1C)CCC(c1ccccc1)O3 (centres unmarked) [Example 21, 2,3-Dimethyl-8-phenyl-3,6,7,8tetrahydro-chromeno[7,8-d]imidazole-5-carboxylic Acid (2,3-Dihydroxy-propyl)amide]	268 to 270	–
COCn1c(C)nc2c3c(c(C(=O)N(C)C)cc21)CCC(c1ccccc1)O3 (centres unmarked) [Example 22, 3Methoxymethyl-2-methyl-8-phenyl-3,6,7,8-tetrahydro-chromeno[7,8-d]imidazole-5-carboxylic Acid Dimethylamide]	213 to 215	–
CC(=O)N(C)c1cc2c(nc(C)n2C)c2c1CCC(c1ccccc1)O2 (centres unmarked) [Example 23, N-(2,3-Dimethyl-8-phenyl-3,6,7,8-tetrahydro-chromeno[7,8-d]imidazol-5-yl)-N-methyl-acetamide]	214 to 216	–
CCc1nc2c3c(c(C(=O)N(C)C)c(-c4ccccc4)c2n1C)CCCO3 [Example 24, 2-Ethyl-3-methyl-4-phenyl-3,6,7,8-tetrahydro-chromeno[7,8-d]imidazole-5-carboxylic Acid Dimethylamide]	195 to 197	–
Cc1nc2c3c(c(C(=O)NC4CC4)cc2n1C)CCC(c1ccccc1)O3 (centres unmarked) [Example 35, 2,3-Dimethyl-8-phenyl-3,6,7,8-tetrahydro-chromeno[7,8-d]imidazole-5-carboxylic Acid Cyclopropylamide]	312 to 313	–
Cc1nc2c3c(ccc2n1C)CCC(c1ccccc1)O3 (centres unmarked) [Example 36, 2,3-Dimethyl-8-phenyl-3,6,7,8-tetrahydro-chromeno[7,8-d]imidazole]	161 to 164	–

More lines, main results first:

melting point [°C]	Structure (SMILES)	Inhibition of acid secretion [1] [%]
192 to 193	Cc1nc2c3c(c(C(=O)NN4CC4)cc2n1C)CCC(c1ccccc1)N3 (centres unmarked)	–
167 to 170	Cc1nc2c3c(c(C(=O)N(C)C)cc2n1C)CCC(c1ccccc1)N3 (centres unmarked) [Example 2, 2,3-Dimethyl-8-phenyl-6,7,8,9-tetrahydro-3H-imidazo[4,5-h]quinoline-5-carboxylic Acid Dimethylamide]	>50
264 to 267	Cc1nc2c3c(c(C(N)=O)cc2n1C)CCC(c1ccccc1)O3 (centres unmarked) [Example 3, 2,3-Dimethyl-8-phenyl-3,6,7,8tetrahydro-chromeno[7,8-d]imidazole-5-carboxylic Acid Amide]	–
172 to 173	CCOC(=O)c1cc2c(nc(C)n2C)c2c1CCC(c1ccccc1)O2 (centres unmarked) [Example 15, 2,3-Dimethyl-8-phenyl-3,6,7,8-tetrahydro-chromeno[7,8-d]imidazole-5-carboxylic Acid Ethyl Ester]	–
323 to 326	Cc1nc2c3c(c(C(=O)O)cc2n1C)CCC(c1ccccc1)O3 (centres unmarked) [Example 16, 2,3-Dimethyl-8-phenyl-3,6,7,8-tetrahydro-chromeno[7,8-d]imidazole-5-carboxylic Acid]	–
185 to 186	CCOC(=O)c1cc2c(nc(C)n2C)c2c1CCC(c1ccccc1)N2 (centres unmarked) [Example 25, Ethyl 2,3-dimethyl-8-phenyl-6,7,8,9-tetrahydro-3H-imidazo[4,5-h]quinoline-5-carboxylate]	–
325 to 326	Cc1nc2c3c(c(C(=O)O)cc2n1C)CCC(c1ccccc1)N3 (centres unmarked) [Example 26, 2,3-Dimethyl-8-phenyl-6,7,8,9-tetrahydro-3H-imidazo[4,5-h]quinoline-5-carboxylic Acid]	–
311 to 319	Cc1nc2c3c(c(C(N)=O)cc2n1C)CCC(c1ccccc1)N3 (centres unmarked) [Example 28, 2,3-Dimethyl-8-phenyl-6,7,8,9-tetrahydro-3H-imidazo[4,5-h]quinoline-5-carboxylic Acid Amide]	–
259	CNC(=O)c1cc2c(nc(C)n2C)c2c1CCC(c1ccccc1)N2 (centres unmarked) [Example 29, 2,3-Dimethyl-8-phenyl-6,7,8,9-tetrahydro-3H-imidazo[4,5-h]quinoline-5-carboxylic Acid Methylamide]	>50
253 to 254	Cc1nc2c3c(c(CO)cc2n1C)CCC(c1ccccc1)N3 (centres unmarked) [Example 31, 5-Hydroxymethyl-2,3-dimethyl-8-phenyl-6,7,8,9tetrahydro-3H-imidazo[4,5-h]quinoline]	–
